Drawing on US11834453B2, “Substituted pyrimido[5,4-d]pyrimidines as HER2 inhibitors” (Array BioPharma Inc., priority 2020, dated 2023), this text covers IC50 for 28 compounds.

SMILES strings stand for the structures.

Test [1] addresses ErbB2 insYVMA (HER2-YVMA, SEQ ID NO: 2) (Homo sapiens, UniProt P04626, INS775YVMA/P1170A). Put plainly: biochemical. The following applies: ErbB2 insYVMA enzyme assay; read-out: Assay 1 IC50.
In the next test the target is ErbB2 WT (Homo sapiens (Human), UniProt P04626). Put plainly: ErbB enzyme assay (CisBio HTRF KinEASE-TK), Assay 2. In kind it is biochemical. In outline:
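ErbB2 phosphorylates 250 nM biotin-TK substrate at 1 mM ATP in 25 mM HEPES pH 7.4, 10 mM MgCl2, 0.01% Triton X-100 and 2% DMSO, for 30 min at 22 °C. Product is detected by HTRF with Sa-XL665 and TK-Ab-Cryptate. Percent of control is set by DMSO-only wells and pre-quenched wells.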
In general terms: In TR-FRET formats the signal depends on donor and acceptor labels being close together.

The target in a further test is EGFR (Homo sapiens (Human), UniProt P00533). Put plainly: ErbB enzyme assay (CisBio HTRF KinEASE-TK), Assay 3. In kind it is biochemical. In outline:
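Kinase + 250 nM biotin TK-substrate, 1 mM ATP, cpd (3-fold dil.), HEPES pH 7.4/10 mM MgCl2/0.01% Triton/2% DMSO; 30 min 22 °C. Quench w/ Sa-XL665 + TK-Ab-Cryptate, 1 h, HTRF. IC50 = 50 POC on 4PL fit.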

Test [2] has as its target ErbB2 with Exon 20 YVMA insertion (HER2-YVMA) (Homo sapiens (Human), UniProt P04626, INS775YVMA). Put plainly: Cellular phosphorylation assay, constitutive ErbB2 phosphorylation (Y1196) in engineered NIH 3T3 cells, Assay 4. The test is classed as cell-based. In outline:
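Engineered NIH 3T3 cells expressing HER2-YVMA treated with compounds 1 h at 37 °C, then formaldehyde-fixed and methanol-permeabilized. pErbB2 Y1196 detected by in-cell infrared immunofluorescence, normalized to GAPDH. IC50 from the normalized curves.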

For another test, the target named is EGFR wild type (EGFR WT) (Homo sapiens (Human), UniProt P00533). The experiment in a line: Cellular phosphorylation assay, EGF-stimulated EGFR phosphorylation in engineered NIH 3T3 cells, Phospho-EGFR DuoSet IC ELISA, Assay 5. The test is classed as cell-based. The method, boiled down: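 NIH 3T3 cells expressing EGFR WT (20,000/well, attached overnight) were exposed to serially diluted compound for 1 h at 37 °C, then stimulated with 100 ng/ml rEGF for 10 min. Phospho-EGFR in lysates measured by sandwich ELISA optical density; IC50 from curves.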
Chain of EGFR wild type (EGFR WT) (P00533 25-1210): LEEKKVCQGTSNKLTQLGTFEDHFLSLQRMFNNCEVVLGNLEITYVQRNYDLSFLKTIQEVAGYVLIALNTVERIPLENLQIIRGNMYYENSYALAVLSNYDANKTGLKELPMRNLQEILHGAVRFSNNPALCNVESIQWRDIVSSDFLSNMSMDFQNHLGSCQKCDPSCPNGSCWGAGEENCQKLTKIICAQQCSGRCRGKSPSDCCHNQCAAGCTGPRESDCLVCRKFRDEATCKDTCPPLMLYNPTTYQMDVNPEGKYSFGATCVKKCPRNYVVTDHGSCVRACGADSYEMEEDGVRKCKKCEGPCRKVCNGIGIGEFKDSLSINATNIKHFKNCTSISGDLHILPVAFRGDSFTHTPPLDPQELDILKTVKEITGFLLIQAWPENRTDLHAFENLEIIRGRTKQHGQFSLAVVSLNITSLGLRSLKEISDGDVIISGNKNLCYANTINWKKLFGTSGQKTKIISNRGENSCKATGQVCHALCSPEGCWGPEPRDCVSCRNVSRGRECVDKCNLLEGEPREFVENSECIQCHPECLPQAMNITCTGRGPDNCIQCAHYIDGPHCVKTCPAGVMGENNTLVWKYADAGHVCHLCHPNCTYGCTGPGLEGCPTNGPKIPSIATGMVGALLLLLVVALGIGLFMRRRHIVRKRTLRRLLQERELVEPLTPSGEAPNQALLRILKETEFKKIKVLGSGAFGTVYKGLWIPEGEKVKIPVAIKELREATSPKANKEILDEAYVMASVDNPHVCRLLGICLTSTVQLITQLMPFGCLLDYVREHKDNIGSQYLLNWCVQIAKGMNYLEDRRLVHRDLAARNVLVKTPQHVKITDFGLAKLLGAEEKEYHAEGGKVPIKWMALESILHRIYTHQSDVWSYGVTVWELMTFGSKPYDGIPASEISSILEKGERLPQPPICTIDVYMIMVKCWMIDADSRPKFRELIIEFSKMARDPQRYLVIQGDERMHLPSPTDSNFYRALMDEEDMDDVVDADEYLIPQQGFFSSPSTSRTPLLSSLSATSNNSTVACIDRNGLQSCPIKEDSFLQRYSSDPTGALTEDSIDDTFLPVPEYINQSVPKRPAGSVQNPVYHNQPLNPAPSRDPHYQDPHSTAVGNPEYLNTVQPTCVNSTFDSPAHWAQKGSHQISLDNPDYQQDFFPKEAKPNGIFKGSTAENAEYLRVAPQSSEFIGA

Chain of EGFR (P00533 25-1210): as above
Chain of ErbB2 with Exon 20 YVMA insertion (HER2-YVMA) (P04626 other isoform, or with tags, fused parts or gaps ins YVMA behind 775): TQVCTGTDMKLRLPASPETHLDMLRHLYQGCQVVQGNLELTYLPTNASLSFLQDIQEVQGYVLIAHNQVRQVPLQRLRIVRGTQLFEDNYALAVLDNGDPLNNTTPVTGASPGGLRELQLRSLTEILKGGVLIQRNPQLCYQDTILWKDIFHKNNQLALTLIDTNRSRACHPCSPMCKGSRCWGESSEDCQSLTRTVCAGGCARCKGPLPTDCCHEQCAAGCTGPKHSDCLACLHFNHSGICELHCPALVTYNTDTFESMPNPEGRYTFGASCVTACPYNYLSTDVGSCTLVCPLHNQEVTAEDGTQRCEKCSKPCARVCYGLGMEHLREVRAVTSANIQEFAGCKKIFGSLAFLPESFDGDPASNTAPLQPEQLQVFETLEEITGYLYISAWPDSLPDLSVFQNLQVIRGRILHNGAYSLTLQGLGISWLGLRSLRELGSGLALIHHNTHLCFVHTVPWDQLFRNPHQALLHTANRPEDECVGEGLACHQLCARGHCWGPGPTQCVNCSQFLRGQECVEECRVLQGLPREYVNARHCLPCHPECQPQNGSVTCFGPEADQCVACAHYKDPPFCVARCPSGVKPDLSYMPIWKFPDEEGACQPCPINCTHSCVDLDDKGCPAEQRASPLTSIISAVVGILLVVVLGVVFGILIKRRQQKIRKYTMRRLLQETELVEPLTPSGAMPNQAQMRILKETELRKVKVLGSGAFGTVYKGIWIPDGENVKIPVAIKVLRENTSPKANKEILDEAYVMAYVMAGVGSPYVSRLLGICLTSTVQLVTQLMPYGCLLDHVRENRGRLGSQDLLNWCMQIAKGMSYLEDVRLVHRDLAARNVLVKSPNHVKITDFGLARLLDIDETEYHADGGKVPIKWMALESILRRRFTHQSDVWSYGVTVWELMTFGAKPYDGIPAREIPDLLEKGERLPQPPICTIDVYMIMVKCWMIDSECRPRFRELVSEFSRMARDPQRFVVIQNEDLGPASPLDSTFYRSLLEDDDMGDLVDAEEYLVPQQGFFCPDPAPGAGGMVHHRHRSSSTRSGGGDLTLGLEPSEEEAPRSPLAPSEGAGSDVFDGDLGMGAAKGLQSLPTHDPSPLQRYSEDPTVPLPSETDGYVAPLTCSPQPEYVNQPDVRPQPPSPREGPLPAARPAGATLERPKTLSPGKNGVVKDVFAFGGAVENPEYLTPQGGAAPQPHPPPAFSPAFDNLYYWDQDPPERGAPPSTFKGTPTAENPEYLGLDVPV
Chain of ErbB2 insYVMA (HER2-YVMA, SEQ ID NO: 2) (P04626 with tags, fused parts or gaps INS775YVMA/P1170A limits assumed): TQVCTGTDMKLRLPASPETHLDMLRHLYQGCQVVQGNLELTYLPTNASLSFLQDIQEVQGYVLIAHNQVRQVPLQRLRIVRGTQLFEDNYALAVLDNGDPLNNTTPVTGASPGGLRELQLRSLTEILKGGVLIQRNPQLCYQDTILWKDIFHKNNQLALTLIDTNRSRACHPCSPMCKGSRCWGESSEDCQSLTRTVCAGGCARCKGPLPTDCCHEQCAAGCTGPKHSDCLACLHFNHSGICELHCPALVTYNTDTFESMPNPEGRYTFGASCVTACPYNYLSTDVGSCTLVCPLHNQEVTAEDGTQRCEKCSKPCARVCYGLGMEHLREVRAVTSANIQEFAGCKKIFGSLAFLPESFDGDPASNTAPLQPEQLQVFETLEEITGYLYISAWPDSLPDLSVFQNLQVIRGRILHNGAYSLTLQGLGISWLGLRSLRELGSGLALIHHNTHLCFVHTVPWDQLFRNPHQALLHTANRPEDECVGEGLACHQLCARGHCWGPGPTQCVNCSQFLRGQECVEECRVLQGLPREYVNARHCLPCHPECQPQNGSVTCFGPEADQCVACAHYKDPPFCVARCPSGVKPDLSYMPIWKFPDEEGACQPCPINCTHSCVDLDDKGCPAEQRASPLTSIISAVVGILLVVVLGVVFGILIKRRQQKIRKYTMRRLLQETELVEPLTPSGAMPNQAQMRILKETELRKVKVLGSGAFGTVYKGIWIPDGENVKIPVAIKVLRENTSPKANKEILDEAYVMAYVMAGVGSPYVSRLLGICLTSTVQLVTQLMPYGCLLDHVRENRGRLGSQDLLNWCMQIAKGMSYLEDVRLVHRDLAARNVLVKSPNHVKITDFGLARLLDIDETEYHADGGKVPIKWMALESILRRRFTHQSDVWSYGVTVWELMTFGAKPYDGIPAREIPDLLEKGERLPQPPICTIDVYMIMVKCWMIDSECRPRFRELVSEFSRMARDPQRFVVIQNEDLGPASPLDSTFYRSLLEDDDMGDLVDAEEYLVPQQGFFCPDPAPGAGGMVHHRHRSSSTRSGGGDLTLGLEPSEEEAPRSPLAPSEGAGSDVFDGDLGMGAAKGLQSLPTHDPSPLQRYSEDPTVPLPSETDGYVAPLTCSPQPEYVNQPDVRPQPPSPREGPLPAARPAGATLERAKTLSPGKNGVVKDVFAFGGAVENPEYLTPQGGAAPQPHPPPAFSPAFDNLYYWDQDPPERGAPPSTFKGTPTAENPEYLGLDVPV

A word on the IC50: it is the concentration that inhibits the measured activity by half. Regarding `Cc1c(Oc2ccn3ncnc3c2)ccc(Nc2ncnc3cnc(N[C@H]4CNC[C@H]4F)nc23)c1F` [Example 318], the IC50 in test [1] is 125 nM; against ErbB2 WT, 88 nM; at EGFR it was 4330 nM; in test [2], 928 nM; at EGFR wild type (EGFR WT), not below 5000 nM.
Consider `Cc1c(Oc2ccn3ncnc3c2)ccc(Nc2ncnc3cnc(N(C)[C@H]4CN(C)C[C@H]4F)nc23)c1F` [Example 320], for which the IC50 in test [1] is 12.7 nM; on ErbB2 WT, 36 nM; against EGFR, 2340 nM; in test [2] it was 271 nM; against EGFR wild type (EGFR WT) it was not below 5000 nM.
For `COC[C@H]1CCN1c1ncc2ncnc(Nc3ccc(Oc4ccn5ncnc5c4)c(Cl)c3)c2n1` [Example 321], the IC50 in test [1] is 12.9 nM; on ErbB2 WT, 65.7 nM; at EGFR it was 4340 nM; in test [2] it was 72 nM; on EGFR wild type (EGFR WT), not below 5000 nM.
As for `Clc1cc(Nc2ncnc3cnc(N4C5CCC4COC5)nc23)ccc1Oc1ccn2ncnc2c1` [Example 322], the IC50 is 21.6 nM in test [1]; 62.1 nM against ErbB2 WT; not below 10000 nM on EGFR; 102 nM in test [2]; not below 5000 nM against EGFR wild type (EGFR WT).
Take `O[C@@H]1CN(c2ncc3ncnc(Nc4ccc(Oc5ccn6ncnc6c5)c(Cl)c4)c3n2)CC1(F)F` [Example 323]: the IC50 in test [1] was 12.2 nM; against ErbB2 WT, 75.4 nM; at EGFR, 9720 nM; in test [2], 59.9 nM; against EGFR wild type (EGFR WT) it was not below 5000 nM.
On the same counts, the results for `CC1(O)CN(c2ncc3ncnc(Nc4ccc(Oc5ccn6ncnc6c5)c(Cl)c4)c3n2)C1` [Example 324] are 64.4 nM, 119 nM, not below 10000 nM, 124 nM and not below 5000 nM.
Consider `COC[C@H](O)CN(C)c1ncc2ncnc(Nc3ccc(Oc4ccn5ncnc5c4)c(Cl)c3)c2n1` [Example 325], for which the IC50 in test [1] was 27.5 nM; against ErbB2 WT, 45.3 nM; against EGFR, 4880 nM; in test [2], 166 nM; against EGFR wild type (EGFR WT), not below 5000 nM.
Turning to `OC1(CNc2ncc3ncnc(Nc4ccc(Oc5ccn6ncnc6c5)c(Cl)c4)c3n2)COC1` [Example 326], the IC50 in test [1] was 14.4 nM; at ErbB2 WT, 32.6 nM; on EGFR it was 2340 nM; in test [2], 32.1 nM; on EGFR wild type (EGFR WT) it was not below 5000 nM.
With `C[C@H]1CN(c2ncc3ncnc(Nc4ccc(Oc5ccn6ncnc6c5)c(Cl)c4)c3n2)CCO1` [Example 327], the IC50 in test [1] was 20.8 nM; against ErbB2 WT it was 32.1 nM; at EGFR, 3820 nM; in test [2], 105 nM; at EGFR wild type (EGFR WT), not below 5000 nM.
On the same counts, the results for `COC[C@@H]1CCN1c1ncc2ncnc(Nc3ccc(Oc4ccn5ncnc5c4)c(Cl)c3)c2n1` [Example 328] are 17.9 nM, 105 nM, not below 10000 nM, 306 nM and not below 5000 nM.
On to `CN(CC1(O)CCC1)c1ncc2ncnc(Nc3ccc(Oc4ccn5ncnc5c4)c(Cl)c3)c2n1` [Example 329], for which the IC50 in test [1] is 19.8 nM; on ErbB2 WT, 37.7 nM; on EGFR, 5060 nM; in test [2], 85.2 nM; at EGFR wild type (EGFR WT), not below 5000 nM.
On to `CC1(C)CN(c2ncc3ncnc(Nc4ccc(Oc5ccn6ncnc6c5)c(Cl)c4)c3n2)CCO1` [Example 330], for which the IC50 is 34.3 nM in test [1]; 72.6 nM against ErbB2 WT; 8510 nM on EGFR; 197 nM in test [2]; not below 5000 nM against EGFR wild type (EGFR WT).
For `O[C@@H]1C[C@H]2C[C@@H]1CN2c1ncc2ncnc(Nc3ccc(Oc4ccn5ncnc5c4)c(Cl)c3)c2n1` [Example 332], the IC50 in test [1] was 48.6 nM; on ErbB2 WT, 50.5 nM; at EGFR it was not below 10000 nM; in test [2] it was 186 nM; against EGFR wild type (EGFR WT), not below 5000 nM.
On the same counts, the results for `O[C@@H]1C[C@@H]2C[C@H]1CN2c1ncc2ncnc(Nc3ccc(Oc4ccn5ncnc5c4)c(Cl)c3)c2n1` [Example 333] are 11.9 nM, 23.2 nM, 2230 nM, 82.1 nM and not below 5000 nM.
On to `O[C@H]1C[C@@H]2C[C@H]1CN2c1ncc2ncnc(Nc3ccc(Oc4ccn5ncnc5c4)c(Cl)c3)c2n1` [Example 334], for which the IC50 was 20.4 nM in test [1]; 55.7 nM on ErbB2 WT; 1650 nM against EGFR; 266 nM in test [2]; not below 5000 nM against EGFR wild type (EGFR WT).
As for `O[C@H]1C[C@H]2C[C@@H]1CN2c1ncc2ncnc(Nc3ccc(Oc4ccn5ncnc5c4)c(Cl)c3)c2n1` [Example 335], the IC50 was 15.7 nM in test [1]; 24.1 nM against ErbB2 WT; 4110 nM against EGFR; 143 nM in test [2]; not below 5000 nM at EGFR wild type (EGFR WT).
For `O[C@H]1[C@@H]2C[C@H]1CN(c1ncc3ncnc(Nc4ccc(Oc5ccn6ncnc6c5)c(Cl)c4)c3n1)C2` [Example 336] the same measures were 54 nM, 130 nM, not below 10000 nM, 2260 nM and not below 5000 nM.
Take `CC1(C)CN(c2ncc3ncnc(Nc4ccc(Oc5ccn6ncnc6c5)c(Cl)c4)c3n2)CC[C@@H]1O` [Example 337]: the IC50 in test [1] is 17 nM; at ErbB2 WT, 13.3 nM; on EGFR, 2490 nM; in test [2] it was 70.3 nM; on EGFR wild type (EGFR WT), not below 5000 nM.
For `O[C@H]1CN(c2ncc3ncnc(Nc4ccc(Oc5ccn6ncnc6c5)c(Cl)c4)c3n2)CC[C@@H]1F` [Example 338] the same measures were 13.2 nM, 12.8 nM, 1990 nM, 65.2 nM and not below 5000 nM.
As to `CC1(C)CN(c2ncc3ncnc(Nc4ccc(Oc5ccn6ncnc6c5)c(Cl)c4)c3n2)C[C@H]1O` [Example 339], the IC50 in test [1] was 47.2 nM; on ErbB2 WT it was 71.4 nM; at EGFR, 5240 nM; in test [2], 587 nM; at EGFR wild type (EGFR WT), not below 5000 nM.
Take `C[C@H]1CN(c2ncc3ncnc(Nc4ccc(Oc5ccn6ncnc6c5)c(Cl)c4)c3n2)C[C@@H]1O` [Example 340]: the IC50 is 16.8 nM in test [1]; 41.2 nM at ErbB2 WT; 4000 nM on EGFR; 165 nM in test [2]; not below 5000 nM against EGFR wild type (EGFR WT).
For `O[C@@H]1[C@@H]2CC[C@H]1CN(c1ncc3ncnc(Nc4ccc(Oc5ccn6ncnc6c5)c(Cl)c4)c3n1)C2` [Example 341], the IC50 is 12.7 nM in test [1]; 20.7 nM at ErbB2 WT; 1740 nM against EGFR; 43.1 nM in test [2]; not below 5000 nM on EGFR wild type (EGFR WT).
As to `O[C@H]1[C@@H]2CC[C@H]1CN(c1ncc3ncnc(Nc4ccc(Oc5ccn6ncnc6c5)c(Cl)c4)c3n1)C2` [Example 342], the IC50 in test [1] was 10.4 nM; against ErbB2 WT, 25.3 nM; at EGFR, 1670 nM; in test [2] it was 108 nM; against EGFR wild type (EGFR WT) it was not below 5000 nM.
Consider `Cc1cc(Nc2ncnc3cnc(N(CC(F)F)CC(F)F)nc23)ccc1Oc1ccc2c(c1)ncn2C` [Example 344], for which the IC50 in test [1] is 161 nM; against ErbB2 WT it was 675 nM; against EGFR it was not below 10000 nM; in test [2], 128 nM; at EGFR wild type (EGFR WT) it was not below 5000 nM.
With `Cc1cc(Nc2ncnc3cnc(N4CCC5(CCO5)CC4)nc23)ccc1Oc1ccc2c(c1)ncn2C` [Example 345], the IC50 in test [1] was 31.3 nM; at ErbB2 WT, 57.8 nM; on EGFR, not below 10000 nM; in test [2], 18.5 nM; at EGFR wild type (EGFR WT), not below 5000 nM.
With `Cc1cc(Nc2ncnc3cnc(N4CCN5C(=O)COC[C@H]5C4)nc23)ccc1Oc1ccc2c(c1)ncn2C` [Example 346], the IC50 in test [1] was 39.5 nM; on ErbB2 WT, 60.4 nM; against EGFR, not below 10000 nM; in test [2], 20.3 nM; against EGFR wild type (EGFR WT), not below 5000 nM.
Turning to `Cc1c(Oc2ccc3c(c2)ncn3C)ccc(Nc2ncnc3cnc(N4CC5CC5(O)C4)nc23)c1F` (centres unmarked) [Example 347], the IC50 was 79.6 nM in test [1]; 110 nM at ErbB2 WT; not below 10000 nM at EGFR; 244 nM in test [2]; not below 5000 nM against EGFR wild type (EGFR WT).
As for `Cc1cc(Nc2ncnc3cnc(N(C)[C@H]4CCCOC4)nc23)ccc1Oc1ccn2ncnc2c1` [Example 349], the IC50 is 18.9 nM in test [1]; 24 nM on ErbB2 WT; 1290 nM at EGFR; 116 nM in test [2]; not below 5000 nM against EGFR wild type (EGFR WT).
